One compound from US20160030426A1, “HETEROARYL COMPOUNDS AND USES THEREOF” (CELGENE AVILOMICS RESEARCH, INC., priority 2013, published 2016) can be followed below.

The experiment deals with T1, EGFR-WT (Homo sapiens, UniProt P00533).
T1 construct: purchased Invitrogen PV3872
The experiment is described as follows: Omnia assay for potency assessment against EGFR-WT. In kind it is biochemical. The settings on record: 30 min pre-incubation at 27° C., read-out: EGFR Inhibition. How it is done: Omnia Assay Protocol for Potency Assessment Against BTK and EGFR
The mechanics of the assay platform are best described by the vendor (Invitrogen, Carlsbad, Calif.).
10× stocks of EGFR-WT (PV3872) from Invitrogen, 1.13×ATP (Invitrogen catalog number AS001A) and appropriate Tyr-Sox conjugated peptide substrates (Invitrogen catalog number KCZ1001) were prepared in 1× kinase reaction buffer consisting of 20 mM Tris, pH 7.5, 5 mM MgCl2, 1 mM EGTA, 5 mM β-glycerophosphate, 5% glycerol (10× stock, Invitrogen catalog number KB002A) and 0.2 mM DTT (Invitrogen catalog number DS001A). 5 μL of each enzyme were pre-incubated in a Corning (#3574) 384-well, white, non-binding surface microtiter plate (Corning, N.Y.) for 30 min. at 27° C. with a 0.5 μL volume of 50% DMSO and serially diluted compounds prepared in 50% DMSO. Kinase reactions were started with the addition of 45 μL of the ATP/Tyr-Sox peptide substrate mix and monitored every 30-90 seconds for 60 minutes at λex360/λem485 in a Synergy^4 plate reader from BioTek (Winooski, Vt.). […] Initial velocity (0 minutes to ˜30 minutes) from each reaction was determined from the slope of a plot of relative fluorescence units vs time (minutes) and then plotted against inhibitor concentration to estimate IC50 from log[Inhibitor] vs Response, Variable Slope model in GraphPad Prism from GraphPad Software (San Diego, Calif.).

SMILES strings stand for the structures.

T1 sequence (P00533 668-1210 limits assumed): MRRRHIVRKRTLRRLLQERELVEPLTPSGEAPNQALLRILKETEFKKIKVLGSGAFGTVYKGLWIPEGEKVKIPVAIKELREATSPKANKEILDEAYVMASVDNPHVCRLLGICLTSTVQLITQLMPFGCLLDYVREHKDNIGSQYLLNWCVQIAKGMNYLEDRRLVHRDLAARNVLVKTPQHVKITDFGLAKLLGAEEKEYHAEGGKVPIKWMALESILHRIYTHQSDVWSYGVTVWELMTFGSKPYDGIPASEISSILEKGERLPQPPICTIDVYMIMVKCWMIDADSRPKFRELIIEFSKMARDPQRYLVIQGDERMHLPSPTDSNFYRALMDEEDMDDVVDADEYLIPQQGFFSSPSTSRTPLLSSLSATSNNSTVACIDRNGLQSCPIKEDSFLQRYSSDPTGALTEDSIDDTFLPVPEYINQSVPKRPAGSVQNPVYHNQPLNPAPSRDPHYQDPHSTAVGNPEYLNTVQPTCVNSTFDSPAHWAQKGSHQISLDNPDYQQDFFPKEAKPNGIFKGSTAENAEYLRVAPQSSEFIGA

In the case of `[2H]C([2H])([2H])OC([2H])([2H])C([2H])([2H])Oc1ccc(Nc2ncc(F)c(Nc3cccc(NC(=O)C=C)c3)n2)cc1` [II-7], the IC50 was in the range of 10 to 100 nM.
